Source: patent US20240342227A1, “COMBINATION OF E. FAECALIS AND AN ANTI-INFLAMMATORY AGENT AND USES THEREOF IN THE PREVENTION AND/OR TREATMENT OF RESPIRATORY DISEASES” (INSTITUT NATIONAL DE RECHERCHE POUR L'AGRICULTURE, …, priority 2021, published 2024)
“Also recorded” adds a separate entry of the source.

Tested on: BEAS-2B cells
Experiment: IL-8 release induced by TNF-α on BEAS-2B cells (ELISA on supernatant after 6 h)
Type: cell-based, human
Procedure: BEAS-2B cells were co-incubated with TNF-α (1 pg/mL) alone or with different doses of budesonide (1.5; 0.75; 0.5; 0.1 nM). After 6 hours of incubation, the IL-8 concentration was measured in the supernatant. IL-8 levels are expressed as a percentage of the IL-8 level induced by stimulation with TNF-α for 6 hours. The results correspond to the mean+SEM for at least 3 experiments, n=6-12 technical replicates. *p<0.05 and ***p<0.001 compared with the TNF-α control group.
BEAS-2B cells were co-incubated with TNF-α (1 pg/mL) alone or with a strain of E. faecalis (CNCM I-4969; I-5701; I-5699) MOI 10:1, and/or 0.1 nM of budesonide, or 0.5 nM of budesonide. After 6 hours of incubation, the IL-8 concentration was measured in the supernatant by ELISA. IL-8 levels are expressed as a percentage of the IL-8 level induced by stimulation with TNF-α for 6 hours. The results correspond to the median of 3 experiments, n=9 technical replicates. *p<0.05 and ***p<0.001 compared with the TNF-α control group, by a Kruskal-Wallis non-parametric test followed by Dunn's post-test.
Human bronchial cells (BEAS-2B) are cultured and a pro-inflammatory situation is induced via the addition of TNF-α to the medium. The BEAS-2B cells then respond by releasing IL-8 into the medium. The IL-8 assay after 6 hours is used to estimate the activation state of the cells, which can be reduced by adding an anti-inflammatory agent.

## CCCC1O[C@@H]2C[C@H]3[C@@H]4CCC5=CC(=O)C=C[C@]5(C)[C@H]4[C@@H](O)C[C@]3(C)[C@]2(C(=O)CO)O1 (stereo partly drawn) [budesonide]
Homo sapiens, BEAS-2B, budesonide alone at 5-times higher dose (0.5 nM), TNF-α-stimulated BEAS-2B
  inhibition at 0.0005 µM: 50%
Budesonide alone at 5-times higher dose (0.5 nM), TNF-α-stimulated BEAS-2B, 0.0005 µM
  inhibition of IL-8 release: 55%
Budesonide alone, 0.1 nM, BEAS-2B
  effect on the release of IL-8 induced by TNF-α: do not have any effect; also recorded: no effect
